Data published in PMC6968685 (Journal of Enzyme Inhibition and Medicinal Chemistry, 2020).

Experiments:
[1] = test system: P. falciparum CQ-resistant strain W2; experiment: In vitro antiplasmodial activity, SYBR Green I fluorescence-based method, strain W2; assay type: cell-based; settings: Plasmodium falciparum; chloroquine-resistant strain W2; 48 h incubation; read-out: P. falciparum strains IC50 values, W2
How it was run: (§1)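 P. falciparum 3D7 and W2 cultured in human erythrocytes in RPMI with 0.5% Albumax I at 37 °C, exposed 48 h to compounds tested […]. Parasite DNA read by SYBR Green I fluorescence (ex 485/em 535 nm); IC50 by non-linear regression, mean of three independent experiments.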

[2] = test system: P. falciparum CQ-sensitive strain 3D7; experiment: In vitro antiplasmodial activity, SYBR Green I fluorescence-based method, strain 3D7; assay type: cell-based; settings: Plasmodium falciparum; chloroquine-sensitive strain 3D7; 48 h incubation; read-out: P. falciparum strains IC50 values, 3D7
How it was run: as §1

[3] = test system: L. donovani (MHOM/IN/00/DEVI) promastigotes; experiment: In vitro antileishmanial activity, MTT assay on promastigotes; assay type: cell-based; settings: Leishmania donovani, 72 h incubation, ≥10 = no activity noted at the highest concentration tested
How it was run: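 Log-phase L. donovani MHOM/IN/00/DEVI promastigotes (10^6/ml, Schneider's + 20% FCS) were exposed to graded compound concentrations (DMSO <0.5% v/v) for 72 h at 27 °C, in duplicate. Growth measured by MTT reduction (4 h, A570 nm); IC50 obtained by regression.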

[4] = test system: T. brucei brucei AnTat 1.9; experiment: In vitro antitrypanosomal activity, Alamar Blue assay; assay type: cell-based; settings: Trypanosoma brucei; slender bloodstream trypomastigotes, AnTat 1.9 strain; read-out: Trypanosoma brucei brucei IC50 values, Trypanos Antat 1.9
How it was run: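 Viability read-out: resazurin (Alamar Blue) fluorescence, 530 nm excitation/590 nm emission, after 5 h dye exposure following 69 h compound incubation at 37 °C, 5% CO2, 2000 parasites per well, doses in duplicate. IC50 values fitted nonlinearly, three independent runs.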

[5] = Cytotoxicity evaluation, MTT; assay type: cell-based, human; settings: human
How it was run: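 HepG2 hepatocarcinoma cells exposed to compound in duplicate, then viability measured by MTT reduction (0.5 mg/ml), formazan dissolved in DMSO and read at 570 nm against 630 nm. Viability expressed as percent of untreated cells; CC50 taken from dose-response curve, doxorubicin as positive control.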

[6] = test system: Plasmodium telomeric sequence FPf1T G-quadruplex; experiment: FRET melting experiments, FPf1T; assay type: binding, P. falciparum; settings: 2 μM compound, 0.2 μM oligonucleotide, K+ conditions
Method: (§2) These were performed with dual-labelled oligonucleotides mimicking the Plasmodium telomeric sequences FPf1T [FAM-5′(GGGTTTA)3-GGG3′-TAMRA] and FPf8T [FAM-5′ (GGGTTCA)3GGG3′-TAMRA], the Trypanosoma 9 and 11 chromosomic sequence FTrypBT (also named FEBR1T) [FAM-5′[…]3′-TAMRA], the human telomeric sequence F21T [FAM-(GGGTTA)3-GGG3′-TAMRA], and the human duplex sequence FdxT [FAM5′-[…]-hexaethyleneglycol-[…]3′-TAMRA][51]^,[52]. The oligonucleotides were pre-folded in 10 mM lithium cacodylate buffer (pH 7.2), with 10 mM KCl and 90 mM LiCl (K^+condition). The FAM emissions were recorded at 516 nm using a 492-nm excitation wavelength in the absence and presence of a single compound as a function of temperature (25–95 °C) in 96-well microplates by using a Stratagene MX3000P real-time PCR device at a rate of 1 °C·min^−1. Data were normalised between 0 and 1, and the required temperature for half-denaturation of oligonucleotides corresponding to the emission value of 0.5 was taken as the Tm. […] For each compound, three independent experiments were carried out.

[7] = test system: Plasmodium telomeric sequence FPf8T G-quadruplex; experiment: FRET melting experiments, FPf8T; assay type: binding, P. falciparum; settings: 2 μM compound, 0.2 μM oligonucleotide, K+ conditions
Method: as §2

[8] = test system: Trypanosoma 9 and 11 chromosomic sequence FTrypBT (FEBR1T) G-quadruplex; experiment: FRET melting experiments, FtrypBT; assay type: binding, T. brucei brucei; settings: 2 μM compound, 0.2 μM oligonucleotide, K+ conditions
Method: as §2

[9] = test system: human telomeric sequence F21T G-quadruplex; experiment: FRET melting experiments, F21T; assay type: binding; settings: 2 μM compound, 0.2 μM oligonucleotide, K+ conditions
Method: as §2

[10] = test system: human duplex sequence FdxT; experiment: FRET melting experiments, FdxT duplex control; assay type: binding; settings: 2 μM compound, 0.2 μM oligonucleotide, K+ conditions
Method: as §2

| SMILES | IC50 [1] | IC50 [2] | IC50 [3] | IC50 [4] | CC50 at 72 h [5] | ΔTm FPf1T [6] | ΔTm FPf8T [7] | ΔTm FtrypBT [8] | ΔTm F21T [9] | ΔTm FdxT [10] |
| --- | --- | --- | --- | --- | --- | --- | --- | --- | --- | --- |
| CN(C)CCCNCc1ccc(-c2cc(-c3ccc(CNCCCN(C)C)cc3)c3ccccc3n2)cc1 [Compound 1b, 2,4-Bis{4-[(3-dimethylaminopropyl)aminomethyl]phenyl}quinoline] | 0.88 ± 0.14 µM | 0.47 ± 0.06 µM | ≥ 10 µM | 0.82 ± 0.022 µM | 4.09 ± 0.2 µM | 8.4 ± 1.0 °C | 9.9 ± 0.1 °C | 7.8 ± 1.2 °C | 12.7 ± 0.6 °C | 0.0 ± 0.7 °C |
| CN(C)CCNCc1ccc(-c2cc(-c3ccc(CNCCN(C)C)cc3)c3ccccc3n2)cc1 [Compound 1c, 2,4-Bis{4-[(2-dimethylaminoethyl)aminomethyl]phenyl}quinoline] | 0.34 ± 0.037 µM | 0.032 ± 0.004 µM | ≥ 10 µM | 1.48 ± 0.085 µM | 3.1 ± 0.9 µM | 2.3 ± 0.7 °C | 2.7 ± 0.2 °C | 2.6 ± 0.4 °C | 2.8 ± 1.3 °C | −0.5 ± 0.4 °C |
| CN1CCN(CCCNCc2ccc(-c3cc(-c4ccc(CNCCCN5CCN(C)CC5)cc4)c4ccccc4n3)cc2)CC1 [Compound 1e, 2,4-Bis{4-[(3–(4-methylpiperazin-1-yl)propyl)aminomethyl]phenyl}quinoline] | 1.29 ± 0.063 µM | 0.47 ± 0.06 µM | ≥ 10 µM | 1.78 ± 0.089 µM | 11.3 ± 0.5 µM | 9.4 ± 0.6 °C | 9.2 ± 0.5 °C | 7.4 ± 0.1 °C | 11.3 ± 1.1 °C | 0.1 ± 0.1 °C |
| CN1CCN(CCNCc2ccc(-c3cc(-c4ccc(CNCCN5CCN(C)CC5)cc4)c4ccccc4n3)cc2)CC1 [Compound 1f, 2,4-Bis{4-[(2–(4-methylpiperazin-1-yl)ethyl)aminomethyl]phenyl}quinoline] | 0.13 ± 0.024 µM | 2.42 ± 0.27 µM | ≥ 10 µM | 0.99 ± 0.132 µM | 4.09 ± 0.3 µM | 10.7 ± 1.0 °C | 11.0 ± 0.5 °C | 9.4 ± 0.6 °C | 9.5 ± 2.9 °C | −0.1 ± 0.2 °C |
| c1ccc2c(-c3ccc(CNCCCN4CCOCC4)cc3)cc(-c3ccc(CNCCCN4CCOCC4)cc3)nc2c1 [Compound 1g, 2,4-Bis{4-[(3-morpholinopropyl)aminomethyl]phenyl}quinoline] | – | 0.099 ± 0.007 µM | ≥ 10 µM | 0.38 ± 0.045 µM | 1.47 ± 0.3 µM | 3.7 ± 0.3 °C | 3.7 ± 0.6 °C | 2.0 ± 0.2 °C | 7.1 ± 2.7 °C | −1.8 ± 0.4 °C |
| c1cc(CNCCCN2CCOCC2)cc(-c2cc(-c3cccc(CNCCCN4CCOCC4)c3)c3ccccc3n2)c1 [Compound 1s, 2,4-Bis{3-[(3-morpholinopropyl)aminomethyl]phenyl}quinoline] | – | 0.21 ± 0.04 µM | ≥ 10 µM | 0.73 ± 0.264 µM | 2.63 ± 0.5 µM | 3.0 ± 0.4 °C | 2.8 ± 0.5 °C | 1.8 ± 0.7 °C | 2.5 ± 0.1 °C | −1.5 ± 0.4 °C |
| c1cc(CNCCN2CCOCC2)cc(-c2cc(-c3cccc(CNCCN4CCOCC4)c3)c3ccccc3n2)c1 [Compound 1t, 2,4-Bis{3-[(2-morpholinoethyl)aminomethyl]phenyl}quinoline] | – | 0.23 ± 0.021 µM | ≥ 10 µM | 0.46 ± 0.12 µM | 3.93 ± 1.1 µM | 0.9 ± 0.2 °C | 0.6 ± 0.7 °C | 0.6 ± 0.4 °C | 0.3 ± 0.3 °C | −1.6 ± 0.4 °C |
| CN(C)CCCNCc1ccc(-c2cc3ccccc3c(-c3ccc(CNCCCN(C)C)cc3)n2)cc1 [Compound 2b, 1,3-Bis{4-[(3-dimethylaminopropyl)aminomethyl]phenyl}isoquinoline] | 3.02 ± 0.25 µM | 1.82 ± 0.31 µM | ≥ 10 µM | 0.35 ± 0.049 µM | 3.47 ± 0.3 µM | 13.6 ± 1.3 °C | 13.0 ± 1.1 °C | 11.7 ± 0.6 °C | 12.7 ± 0.3 °C | 0.3 ± 0.2 °C |
| COc1ccc2cc(-c3ccc(CNCCCCN(C)C)cc3)nc(-c3ccc(CNCCCCN(C)C)cc3)c2c1 [Compound 2e, 7-Methoxy-1,3-bis{4-[(4-dimethylaminobutyl)aminomethyl]phenyl}isoquinoline] | 6.06 ± 0.64 µM | 4.41 ± 0.51 µM | ≥ 10 µM | 0.55 ± 0.122 µM | 9.57 ± 1 µM | 27.3 ± 1.1 °C | 26.6 ± 0.2 °C | 24.0 ± 0.3 °C | 22.2 ± 0.1 °C | 4.1 ± 0.3 °C |
| COc1ccc2cc(-c3ccc(CNCCCN(C)C)cc3)nc(-c3ccc(CNCCCN(C)C)cc3)c2c1 [Compound 2f, 7-Methoxy-1,3-bis{4-[(3-dimethylaminopropyl)aminomethyl]phenyl}isoquinoline] | 4.76 ± 0.66 µM | 1.47 ± 0.24 µM | ≥ 10 µM | 0.52 ± 0.072 µM | 2.12 ± 0.2 µM | 20.3 ± 1.1 °C | 18.5 ± 0.5 °C | 16.9 ± 1.1 °C | 15.8 ± 0.1 °C | 0.8 ± 0.3 °C |
| CN(C)CCCNCc1ccc(-c2nc(-c3ccc(CNCCCN(C)C)cc3)c3ccccc3n2)cc1 [Compound 3b, 2,4-Bis{4-[(3-dimethylaminopropyl)aminomethyl]phenyl}quinazoline] | – | 0.62 ± 0.077 µM | ≥ 10 µM | 1.18 ± 0.057 µM | 4.01 ± 0.8 µM | 11.6 ± 1.1 °C | 11.2 ± 0.8 °C | 10.0 ± 0.4 °C | 13.2 ± 0.3 °C | 0.1 ± 0.1 °C |
| c1ccc2c(-c3ccc(CNCCCN4CCOCC4)cc3)nc(-c3ccc(CNCCCN4CCOCC4)cc3)nc2c1 [Compound 3f, 2,4-Bis{4-[(3-morpholinopropyl)aminomethyl]phenyl}quinazoline] | – | 0.42 ± 0.083 µM | ≥ 10 µM | 0.81 ± 0.063 µM | 4.52 ± 0.4 µM | 3.3 ± 0.3 °C | 2.9 ± 0.3 °C | 2.8 ± 0.1 °C | 3.1 ± 0.5 °C | −0.2 ± 0.2 °C |
| c1ccc2c(-c3ccc(CNCCN4CCOCC4)cc3)nc(-c3ccc(CNCCN4CCOCC4)cc3)nc2c1 [Compound 3g, 2,4-Bis{4-[(2-morpholinoethyl)aminomethyl]phenyl}quinazoline] | – | 0.15 ± 0.027 µM | ≥ 10 µM | 1.27 ± 0.632 µM | 4.08 ± 0.6 µM | 1.4 ± 0.1 °C | 1.2 ± 0.4 °C | 1.0 ± 0.5 °C | 4.2 ± 2.1 °C | 0.3 ± 0.2 °C |
| c1cc(CNCCN2CCOCC2)cc(-c2nc(-c3cccc(CNCCN4CCOCC4)c3)c3ccccc3n2)c1 [Compound 3v, 2,4-Bis{3-[(2-morpholinoethyl)aminomethyl]phenyl}quinazoline] | – | 0.36 ± 0.126 µM | ≥ 10 µM | 1.37 ± 0.658 µM | 6.46 ± 1 µM | 0.5 ± 0.3 °C | 0.5 ± 0.4 °C | 0.6 ± 0.1 °C | 0.1 ± 0.1 °C | 0.0 ± 0.0 °C |
